We go through one compound from paper PMC7762786, “The discovery of novel antitrypanosomal 4-phenyl-6-(pyridin-3-yl)pyrimidines” (European Journal of Medicinal Chemistry, 2021).

SMILES strings stand for the structures.

Data set [1] addresses T1, rhodesain (Trypanosoma brucei rhodesiense, UniProt Q95PM0). Description: In vitro rhodesain enzyme assay (Cbz-Phe-Arg-AMC substrate). In kind it is biochemical. Particulars: compound at 50 μM; Cbz-Phe-Arg-AMC substrate 10, 5 and 1.25 μM; read-out: inhibition of rhodesain enzymatic activity. The procedure:
Enzyme assays with rhodesain were performed as described previously [[36], [37], [38]]. The assay buffer consisted of 50 mM sodium acetate (pH 5.5), 5 mM EDTA, 200 mM NaCl and 0.005% Brij35. The enzyme buffer consisted of 50 mM sodium acetate (pH 5.5), 5 mM EDTA, 200 mM NaCl and 2 mM DTT. The substrate Cbz-Phe-Arg-AMC (Bachem, purchased as HCl salt) was diluted from a 1 mM stock solution to reach concentrations of 10, 5 and 1.25 μM. […] Inhibition against rhodesain was measured using Cbz-Phe-Arg-AMC as the substrate, which releases AMC (7-amino-4-methylcoumarin) after amide bond cleavage by the enzyme. Proteolytic activity of the enzyme was monitored spectrophotometrically by the increase of fluorescence intensity by release of AMC (emission at 460 nm) upon hydrolysis.

The target of data set [2] is T1, rhodesain. Description: STD and WaterLOGSY NMR protein-ligand interaction. It counts as binding. The following applies: rhodesain 50 μM, compound 5 mM, 25 °C; corroborated by WaterLOGSY. From the text: In order to support the outcome observed from docking studies, protein-ligand interactions were probed via Saturation Transfer Difference (STD) and WaterLOGSY experiments. STD is an NMR technique where the protein is selectively saturated and, if the ligand is binding to the protein in the timescale of the experiment, the saturation gets transferred to the ligand via intermolecular NOE and only then it is possible to observe an NMR signal. WaterLOGSY relies on the detection of the intermolecular NOE between water (which is selectively irradiated) and the ligand. The sign of the NOE depends on the rotational correlation time of the molecule, thus large molecules such as proteins, have an opposite NOE sign than small molecules such as the pyrimidines investigated. If the pyrimidines bind to the protein, their rotational correlation time changes and the sign of the signals in the WaterLOGSY experiment will be opposite than in the absence of a binding protein. […] The WaterLOGSY results, which as expected is generally a more sensitive technique, further corroborate our findings. […]
All NMR studies were performed at 25 °C on a JEOL ECZ-R 600 MHz spectrometer equipped with a ROYAL room temperature probe. […] The spectra were processed and analysed using JEOL Delta software. […]

Another data set concerns the target T2, CYP3A4 (Homo sapiens, UniProt P08684).
T2 construct: purchased Corning; host or cells: baculovirus infected insect cells (BTI-TN-5B1-4)
As to the kind of experiment: Cytochrome P450 inhibition assay (P450-Glo). In kind it is in vitro ADME. The following applies: 10 μM, result in words. The procedure: (§1) Cytotoxicity was also determined against 786-O and A549 cells.
(§2) Experiments for determining pre-clinical in vitro ADME-Tox activities were performed as described by Moraes et al. and also described in the following sections 4.3.2.1 to 4.3.2.4.
(§3) The luminescence based P450-Glo™ (Promega Corp.) assay was used in 384-well assay format.
(§4) The cytochrome P450 (CYP) panel included microsomal preparations of cytochromes P450 1A2, 2C9, 2C19, 2D6, and 3A4 (Corning) from baculovirus infected insect cells (BTI-TN-5B1−4) which express cytochromes P450 and cytochrome c reductase (and cytochrome b5 for 3A4). Compounds were added (100 nL/well in 1% DMSO v/v) using the Echo 550® Liquid Handler followed by addition of 5 μL/well of CYP450/substrate mixture. Following incubation for 30 min at 37 °C, the reaction was initiated by the addition of 5 μL/well of the NADPH regeneration mixture. By the end of a further 30 min incubation (37 °C), the CYP450 reaction was stopped and the luciferase reaction was initiated by the addition of 10 μL/well of the luciferin detection reagent, followed by an additional 30 min of incubation at 37 °C. The luminescence signal was detected using an Infinite® M1000 PRO plate reader. […] The raw data were normalised relative to the positive and negative controls yielding the % inhibition for each compound.

A further data set addresses T3, CYP2C19 (Homo sapiens, UniProt P33261).
T3 construct: purchased Corning; host or cells: baculovirus infected insect cells (BTI-TN-5B1-4)
As to the kind of experiment: Cytochrome P450 inhibition assay (P450-Glo). It counts as in vitro ADME. The following applies: 10 μM, result in words. On the procedure:
as §1, §2, §3, §4

The next data set deals with T4, CYP2C9 (Homo sapiens, UniProt P11712).
T4 construct: purchased Corning; host or cells: baculovirus infected insect cells (BTI-TN-5B1-4)
T4 sequence (P11712 whole entry): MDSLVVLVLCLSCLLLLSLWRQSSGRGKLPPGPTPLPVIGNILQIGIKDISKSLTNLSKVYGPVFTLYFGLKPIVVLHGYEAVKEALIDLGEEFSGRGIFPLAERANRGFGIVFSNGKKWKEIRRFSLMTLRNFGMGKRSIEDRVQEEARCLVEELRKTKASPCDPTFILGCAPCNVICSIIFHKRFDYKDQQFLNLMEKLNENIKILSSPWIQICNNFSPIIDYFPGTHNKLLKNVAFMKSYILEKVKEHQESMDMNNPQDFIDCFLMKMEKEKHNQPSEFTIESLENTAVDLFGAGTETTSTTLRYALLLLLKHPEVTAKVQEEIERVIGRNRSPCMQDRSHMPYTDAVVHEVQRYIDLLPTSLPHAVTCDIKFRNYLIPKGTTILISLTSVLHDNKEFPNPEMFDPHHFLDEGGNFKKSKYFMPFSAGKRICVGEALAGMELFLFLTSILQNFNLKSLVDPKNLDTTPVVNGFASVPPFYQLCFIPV
As to the kind of experiment: Cytochrome P450 inhibition assay (P450-Glo). In kind it is in vitro ADME. Particulars: 10 μM, result in words. On the procedure: as §1, §2, §3, §4

For another data set, the target named is T5, CYP1A2 (Homo sapiens, UniProt P05177).
T5 construct: purchased Corning; host or cells: baculovirus infected insect cells (BTI-TN-5B1-4)
T5 sequence (P05177 2-516 limits assumed): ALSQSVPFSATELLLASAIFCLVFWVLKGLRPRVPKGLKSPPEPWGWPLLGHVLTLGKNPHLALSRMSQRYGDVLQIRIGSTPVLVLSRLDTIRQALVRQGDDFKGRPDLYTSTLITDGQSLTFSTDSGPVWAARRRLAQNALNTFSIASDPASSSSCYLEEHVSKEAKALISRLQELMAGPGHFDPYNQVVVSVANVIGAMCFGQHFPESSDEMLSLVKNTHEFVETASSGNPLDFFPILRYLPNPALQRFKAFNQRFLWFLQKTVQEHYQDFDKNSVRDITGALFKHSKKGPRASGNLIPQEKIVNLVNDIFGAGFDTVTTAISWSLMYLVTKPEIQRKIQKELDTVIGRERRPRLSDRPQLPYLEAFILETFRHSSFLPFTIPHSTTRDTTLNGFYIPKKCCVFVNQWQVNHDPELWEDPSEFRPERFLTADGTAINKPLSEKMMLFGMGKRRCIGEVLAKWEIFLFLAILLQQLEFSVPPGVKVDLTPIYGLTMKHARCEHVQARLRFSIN
Description: Cytochrome P450 inhibition assay (P450-Glo). Particulars: 10 μM, result in words. It counts as in vitro ADME. On the procedure: as §1, §2, §3, §4

In the next data set the target is T6, CYP2D6 (Homo sapiens, UniProt P10635).
T6 construct: purchased Corning; host or cells: baculovirus infected insect cells (BTI-TN-5B1-4)
T6 sequence (P10635 whole entry): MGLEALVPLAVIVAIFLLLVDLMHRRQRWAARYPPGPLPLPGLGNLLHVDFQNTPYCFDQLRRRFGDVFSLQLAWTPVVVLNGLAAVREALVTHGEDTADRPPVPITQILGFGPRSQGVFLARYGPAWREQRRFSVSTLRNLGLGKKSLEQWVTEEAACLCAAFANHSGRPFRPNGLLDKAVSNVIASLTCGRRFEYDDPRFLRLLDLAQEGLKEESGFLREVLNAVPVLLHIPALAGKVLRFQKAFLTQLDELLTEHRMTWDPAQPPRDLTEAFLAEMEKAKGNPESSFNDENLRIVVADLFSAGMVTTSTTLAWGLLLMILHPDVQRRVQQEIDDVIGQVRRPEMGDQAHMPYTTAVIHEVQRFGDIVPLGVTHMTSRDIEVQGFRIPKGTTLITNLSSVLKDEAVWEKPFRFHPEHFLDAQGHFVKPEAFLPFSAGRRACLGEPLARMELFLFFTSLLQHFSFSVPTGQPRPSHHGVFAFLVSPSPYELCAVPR
As to the kind of experiment: Cytochrome P450 inhibition assay (P450-Glo). It counts as in vitro ADME. Particulars: 10 μM, result in words. The procedure: as §1, §2, §3, §4

T1 sequence (Q95PM0 entry or part of it): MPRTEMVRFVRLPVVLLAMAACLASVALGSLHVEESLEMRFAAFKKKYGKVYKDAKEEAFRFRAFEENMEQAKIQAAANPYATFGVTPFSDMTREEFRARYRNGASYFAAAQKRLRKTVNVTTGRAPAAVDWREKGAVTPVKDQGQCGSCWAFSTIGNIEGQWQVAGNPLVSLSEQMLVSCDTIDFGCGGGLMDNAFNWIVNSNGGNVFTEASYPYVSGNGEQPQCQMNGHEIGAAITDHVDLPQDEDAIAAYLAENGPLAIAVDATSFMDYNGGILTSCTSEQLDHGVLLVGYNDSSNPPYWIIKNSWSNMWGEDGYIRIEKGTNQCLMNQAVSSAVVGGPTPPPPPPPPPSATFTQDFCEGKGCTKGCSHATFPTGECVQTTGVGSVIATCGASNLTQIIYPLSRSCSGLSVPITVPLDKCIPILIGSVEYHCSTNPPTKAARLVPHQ
T2 sequence (P08684 2-503 limits assumed): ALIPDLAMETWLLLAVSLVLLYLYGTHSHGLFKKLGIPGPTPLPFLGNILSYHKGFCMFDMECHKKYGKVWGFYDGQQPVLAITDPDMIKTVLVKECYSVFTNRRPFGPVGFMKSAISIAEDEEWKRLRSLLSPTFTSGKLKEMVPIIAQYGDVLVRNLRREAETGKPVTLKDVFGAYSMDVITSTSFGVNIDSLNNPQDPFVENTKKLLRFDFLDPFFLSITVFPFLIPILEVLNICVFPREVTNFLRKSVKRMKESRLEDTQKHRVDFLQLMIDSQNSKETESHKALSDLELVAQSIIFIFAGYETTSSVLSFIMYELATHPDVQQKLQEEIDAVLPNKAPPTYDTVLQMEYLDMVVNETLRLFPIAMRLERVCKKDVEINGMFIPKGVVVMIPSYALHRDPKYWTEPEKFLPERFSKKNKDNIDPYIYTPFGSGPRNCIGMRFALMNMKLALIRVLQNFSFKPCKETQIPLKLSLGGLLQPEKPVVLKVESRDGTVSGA
T3 sequence (P33261 whole entry): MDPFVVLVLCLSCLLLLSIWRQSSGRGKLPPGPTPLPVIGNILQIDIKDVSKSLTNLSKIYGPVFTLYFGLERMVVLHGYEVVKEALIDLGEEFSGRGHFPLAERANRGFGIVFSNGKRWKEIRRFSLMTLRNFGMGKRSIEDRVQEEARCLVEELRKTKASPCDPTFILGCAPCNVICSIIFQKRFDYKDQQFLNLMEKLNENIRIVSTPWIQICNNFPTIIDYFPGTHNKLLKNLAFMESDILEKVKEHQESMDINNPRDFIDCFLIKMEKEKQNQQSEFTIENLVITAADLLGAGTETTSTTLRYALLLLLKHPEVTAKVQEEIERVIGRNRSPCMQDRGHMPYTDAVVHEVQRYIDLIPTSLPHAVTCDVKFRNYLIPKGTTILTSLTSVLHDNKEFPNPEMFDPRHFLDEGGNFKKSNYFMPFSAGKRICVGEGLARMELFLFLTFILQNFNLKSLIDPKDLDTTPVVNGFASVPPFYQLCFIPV

Usually inhibition stands for how much of the control response was suppressed. Broadly, the melting point is the temperature of the solid-liquid transition. Consider `COc1ccccc1-c1cc(-c2cccnc2)nc(N)n1` [Compound 13, 4-(2-Methoxyphenyl)-6-(pyridin-3-yl)pyrimidin-2-amine], for which the melting point fell in the range of 108 to 110 °C. In addition, the inhibition at 50 µM on rhodesain [1] is not above 15%. On rhodesain [2], the “binding to rhodesain by STD NMR” value is “confirming binding to rhodesain”. The CYP3A4 inhibition result on CYP3A4 is recorded as “favourable results”. In addition, the CYP2C19 inhibition result at CYP2C19 was “some inhibition”. Moreover, the CYP2C9 inhibition entry at CYP2C9 is recorded as “some inhibition”. Also, the CYP1A2 inhibition result at CYP1A2 is given as “inhibitory activity”. Further, the CYP2D6 inhibition entry at CYP2D6 is recorded as “favourable results”.
